Laboratory results from patent US8431593B2, “Heteroaryl amide derivatives” (H. Lundbeck A/S, priority 2006, dated 2013).

Each compound was assayed against T1, P2X7 receptor (Homo sapiens, UniProt Q99572) (assay: P2X7 calcium mobilization assay, high throughput, antagonist activity (Example 4A)). Conditions: not given.
T1 construct: host or cells: SH-SY5Y
T1 sequence (Q99572 1-595): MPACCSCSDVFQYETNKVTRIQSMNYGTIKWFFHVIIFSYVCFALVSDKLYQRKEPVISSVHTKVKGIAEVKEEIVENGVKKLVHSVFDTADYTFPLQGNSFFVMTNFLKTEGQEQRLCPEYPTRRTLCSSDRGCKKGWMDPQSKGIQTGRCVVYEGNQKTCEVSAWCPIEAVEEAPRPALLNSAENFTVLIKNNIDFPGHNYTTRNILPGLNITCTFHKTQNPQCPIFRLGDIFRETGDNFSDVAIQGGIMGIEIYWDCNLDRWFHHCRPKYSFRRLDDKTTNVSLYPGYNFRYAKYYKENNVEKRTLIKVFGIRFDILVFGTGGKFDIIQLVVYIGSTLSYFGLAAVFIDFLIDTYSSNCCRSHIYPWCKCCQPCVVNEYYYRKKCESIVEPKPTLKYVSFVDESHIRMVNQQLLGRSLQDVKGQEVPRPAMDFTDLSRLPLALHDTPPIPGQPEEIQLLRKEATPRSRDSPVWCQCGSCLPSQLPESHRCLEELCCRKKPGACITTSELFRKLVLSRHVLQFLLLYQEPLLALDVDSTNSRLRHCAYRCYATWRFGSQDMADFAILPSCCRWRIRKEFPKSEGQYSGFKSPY
Assay type: cell-based
Summary of the method: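 Cells plated 100,000/well the day before; after 1 h dye loading and one rinse, cells were preincubated 1 h at room temperature with test compound. Calcium mobilization then read on FLIPR^TETRA; maximum RFU corrected by subtracting mean no-agonist response and referenced to mean agonist-control maximum.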
`COCCC1CCN(C(=O)c2cn3c(C(=O)NCC45CC6CC(CC(C6)C4)C5)cccc3n2)CC1` [Compound 88, N-(adamantan-1-ylmethyl)-2-{[4-(2-methoxyethyl)piperidin-1-yl]carbonyl}imidazo[1,2-a]pyridine-5-carboxamide] was tested, and the IC50 was under 2 µM.

Same assay, conditions: 50% decrease in the fluorescence response of cells exposed to 80 μM 2′(3′)-O-(4-benzoyl-benzoyl)adenosine 5′-triphosphate; Example 4A; read-out: IC50
Compound `CC1(C)[C@@H]2CC[C@@H](CNC(=O)c3cccc4nc(CC(=O)N5CC[C@@H](N)C5)cn34)[C@H]1C2` [Compound 588, 2-{2-[(3R)-3-aminopyrrolidin-1-yl]-2-oxoethyl}-N-{[(1R,2R,5R)-6,6-dimethylbicyclo[3.1.1]hept-2-yl]methyl}imidazo [1,2-a]pyridine-5-carboxamide] has an IC50 of under 2 µM.
In the case of `O=C(NCC12CC3CC(CC(C3)C1)C2)c1cccc2nc(C(=O)N3CCOCC3)cn12` [Compound 529, N-(adamantan-1-ylmethyl)-2-(morpholin-4-ylcarbonyl)imidazo[1,2-a]pyridine-5-carboxamide], the IC50 is reported as under 2 µM.
`CC1CCN(C(=O)c2cn3c(C(=O)NC[C@@H]4CC[C@H]5C[C@@H]4C5(C)C)cccc3n2)CC1` [Compound 463, N-{[(1S,2R,5S)-6,6-dimethylbicyclo[3.1.1]hept-2-yl]methyl}-2-[(4-methylpiperidin-1-yl)carbonyl]imidazo[l, 2-a]pyridine-5-carboxamide] gave an IC50 of under 2 µM.
`CCN(Cc1cn2c(C(=O)NCC34CC5CC(CC(C5)C3)C4)cccc2n1)C(=O)c1ncc[nH]1` [Compound 551, N-(adamantan-1-ylmethyl)-2-{[ethyl(1H-imidazol-2-ylcarbonyl)amino]methyl}imidazo[1,2-a]pyridine-5-carboxamide] was tested, and the IC50 was under 2 µM.

Same assay, conditions: 50% decrease in the fluorescence response of cells exposed to 80 μM of 2′(3′)-O-(4-benzoyl-benzoyl)adenosine 5′-triphosphate; Example 4A; read-out: IC50
`CC(C)CC(CNC(=O)c1cccc2nc(CN3CCOCC3)cn12)c1ccccc1` (stereo not shown) [Compound 688, N-(4-methyl-2-phenylpentyl)-2-(morpholin-4-ylmethyl)imidazo[1,2-a]pyridine-5-carboxamide] was tested, and the IC50 was under 2 µM.
Work on `NCC1CCCN1C(=O)c1cn2c(C(=O)NCC34CC5CC(CC(C5)C3)C4)cccc2n1` (stereo not shown) [Compound 622, N-(adamantan-1-ylmethyl)-2-{[2-(aminomethyl)pyrrolidin-1-yl]carbonyl} imidazo[1,2-a]pyridine-5-carboxamide] yielded an IC50 of under 2 µM.
`CC(C(=O)N1CC[C@@H](NC(=O)OC(C)(C)C)C1)c1cn2c(C(=O)NCC34CC5CC(CC(C5)C3)C4)cccc2n1` (stereo in doubt) [Compound 749, tert-butyl [1-(2-{5-[(adamantan-1-ylmethyl)carbamoyl]imidazo[1,2-a]pyridin-2-yl}propanoyl)pyrrolidin-3-yl]carbamate] was tested, and the IC50 was under 2 µM.
In the case of `CC(C)c1ccc(CN(C)C(=O)c2cn3c(C(=O)NCC45CC6CC(CC(C6)C4)C5)cccc3n2)cn1` [Compound 717, 5-N-(adamantan-1-ylmethyl)-2-N-[(6-isopropylpyridin-3-yl)methyl]-2-N-methylimidazo[1,2-a]pyridine-2,5-dicarboxamide], the IC50 is reported as under 2 µM.
In the case of `Cn1ncc2c1CCN(C(=O)c1cn3c(C(=O)NCC45CC6CC(CC(C6)C4)C5)cccc3n1)C2` [Compound 723, N-(adamantan-1-ylmethyl)-2-[(1-methyl-1,4,6,7-tetrahydro-5H-pyrazolo[4,3-c]pyridin-5-yl)carbonyl]imidazo[1,2-a]pyridine-5-carboxamide], the IC50 is reported as under 2 µM.
Compound `NC[C@@H]1CCCN1C(=O)c1cn2c(C(=O)NCC34CC5CC(CC(C5)C3)C4)cccc2n1` [Compound 628, N-(adamantan-1-ylmethyl)-2-{[(2S)-2-(aminomethyl)pyrrolidin-1-yl]carbonyl}imidazo[1,2-a]pyridine-5-carboxamide] has an IC50 of under 2 µM.
With `CNC(=O)CC1(c2cn3c(C(=O)NCC45CC6CC(CC(C6)C4)C5)cccc3n2)CC(=O)N(C)C1=O` (stereo not shown) [Compound 807, N-(adamantan-1-ylmethyl)-2-{1-methyl-3-[2-(methylamino)-2-oxoethyl]-2,5-dioxopyrrolidin-3-yl}imidazo[1,2-a] pyridine-5-carboxamide] the IC50 was under 2 µM.

Same assay, conditions: 50% decrease in the fluorescence response of cells exposed to 80 μM of 2′(3′)-O-(4-benzoyl-benzoyl)adenosine 5′-triphosphate; determined as in Example 4A; read-out: IC50
In the case of `O=C(NCC1(c2ccc(Cl)cc2)CCCCC1)c1cccc2nc(C(Cc3ccc(Cl)cc3)C(=O)O)cn12` (stereo not shown) [Compound 935, 3-(4-chlorophenyl)-2-[5-({[1-(4-chlorophenyl)cyclohexyl]methyl}carbamoyl)imidazo[1,2-a]pyridin-2-yl] propanoic acid], the IC50 is reported as under 2 µM.
Compound `CC(C)CC(CNC(=O)c1cccc2nc(CNc3cc[nH]n3)cn12)c1ccc(Cl)cc1` (stereo not shown) [Compound 835, N-[2-(4-chlorophenyl)-4-methylpentyl]-2-[(1H-pyrazol-3-ylamino)methyl] imidazo [1,2-a]pyridine-5-carboxamide] has an IC50 of under 2 µM.
`O=C(NCC12CC3CC(CC(C3)C1)C2)c1cccc2nc(Cn3nnnc3CCO)cn12` [Compound 855, N-(adamantan-1-ylmethyl)-2-{[5-(2-hydroxyethyl)-1H-tetrazol-1-yl]methyl}imidazo [1,2-a]pyridine-5-carboxamide] showed an IC50 of under 2 µM.
In the case of `CCOC(=O)C1(c2cn3c(C(=O)NCC45CC6CC(CC(C6)C4)C5)cccc3n2)CCOCC1` [Compound 944, ethyl 4-{5-[(adamantan-1-ylmethyl)carbamoyl]imidazo[1,2-a]pyridin-2-yl}tetrahydro-2H-pyran-4-carboxylate], the IC50 is reported as under 2 µM.
`CC(C)CC(CNC(=O)c1cccc2nc(CC(=O)O)cn12)c1ccc(Cl)cc1` (stereo not shown) [Compound 964, (5-{[2-(4-chlorophenyl)-4-methylpentyl]carbamoyl}imidazo[1,2-a]pyridin-2-yl) acetic acid] gave an IC50 of under 2 µM.
Work on `O=C(Cc1cn2c(C(=O)NCCc3ccccc3)cccc2n1)NCC1(c2ccc(Cl)cc2)CCCCC1` [Compound 979, 2-[2-({[1-(4-chlorophenyl)cyclohexyl]methyl}amino)-2-oxoethyl]-N-(2-phenylethyl) imidazo[1,2-a]pyridine-5-carboxamide] yielded an IC50 of under 2 µM.
With `Cc1ccc(C2(CNC(=O)c3cccc4nc(CN5CC[C@@H](N)C5)cn34)CCCCC2)cn1` [Compound 824, 2-{[(3R)-3-aminopyrrolidin-1-yl]methyl}-N-{[1-(6-methylpyridin-3-yl)cyclohexyl]methyl} imidazo[1,2-a] pyridine-5-carboxamide] the IC50 was under 2 µM.
In the case of `CC(C)(C)CCNC(=O)Cc1cn2c(C(=O)NCC3(c4ccc(C(F)(F)F)cc4)CCCCC3)cccc2n1` [Compound 883, 2-{2-[(3,3-dimethylbutyl)amino]-2-oxoethyl}-N-({1-[4-(trifluoromethyl)phenyl]cyclohexyl}methyl) imidazo[1,2-a] pyridine-5-carboxamide], the IC50 is reported as under 2 µM.
With `CCOC(=O)C(Cc1ccccn1)c1cn2c(C(=O)NCC(CC(C)C)c3ccc(Cl)cc3)cccc2n1` (stereo not shown) [Compound 930, ethyl 2-(5-{[2-(4-chlorophenyl)-4-methylpentyl]carbamoyl}imidazo[1,2-a]pyridin-2-yl)-3-pyridin-2-ylpropanoate] the IC50 was under 2 µM.
With `CCC(C)NC(=O)Cc1cn2c(C(=O)NCC3(c4ccc(Cl)cc4)CCCCC3)cccc2n1` (stereo not shown) [Compound 870, 2-[2-(sec-butylamino)-2-oxoethyl]-N-{[1-(4-chlorophenyl)cyclohexyl]methyl}imidazo [1,2-a]pyridine-5-carboxamide] the IC50 was under 2 µM.

Same assay, conditions: SH-SY5Y cells; 50% decrease in fluorescence response to 80 μM BzATP; read-out: IC50
Work on `CC(C)N1CCN(C(=O)Cc2cn3c(C(=O)NCC45CC6CC(CC(C6)C4)C5)cccc3n2)CC1` [Compound 164, N-(adamantan-1-ylmethyl)-2-[2-(4-isopropylpiperazin-1-yl)-2-oxoethyl]imidazo[1,2-a]pyridine-5-carboxamide] yielded an IC50 of under 2 µM.
Compound `N[C@H]1CCN(Cc2cn3c(C(=O)NCC45CC6CC(CC(C6)C4)C5)cccc3n2)C1` [Compound 188, N-(adamantan-1-ylmethyl)-2-{[(3S)-3-aminopyrrolidin-1-yl]methyl}imidazo[1,2-a]pyridine-5-carboxamide] has an IC50 of under 2 µM.
`NC(=O)CNC(=O)c1cn2c(C(=O)NCC34CC5CC(CC(C5)C3)C4)cccc2n1` [Compound 78, 5-N-(adamantan-1-ylmethyl)--(2-amino-2-oxoethyl)imidazo[1,2-a]pyridine-2,5-dicarboxamide] showed an IC50 of under 2 µM.

Same assay, conditions: fluorescence response of cells exposed to 80 μM 2′(3′)-O-(4-benzoyl-benzoyl)adenosine 5′-triphosphate; Example 4A; read-out: IC50
Compound `COCCN(C)C(=O)c1cn2c(NC(=O)CC34CC5CC(CC(C5)C3)C4)cccc2n1` [Compound 366, 5-[(adamantan-1-ylacetyl)amino]-N-(2-methoxyethyl)-N-methylimidazo[1,2-a]pyridine-2-carboxamide] has an IC50 of under 2 µM.
`COC1CCN(C(=O)c2cn3c(NC(=O)CC45CC6CC(CC(C6)C4)C5)cccc3n2)CC1` [Compound 385, 2-adamantan-1-yl-N-{2-[(4-methoxypiperidin-1-yl)carbonyl]imidazo[1,2-a]pyridin-5-yl}acetamide] was tested, and the IC50 was under 2 µM.
With `CCOC(=O)N1CCN(C(=O)c2cn3c(NC(=O)CC45CC6CC(CC(C6)C4)C5)cccc3n2)CC1` [Compound 356, ethyl 4-({5-[(adamantan-1-ylacetyl)amino]imidazo [1,2-a]pyridin-2-yl}carbonyl) piperazine-1-carboxylate] the IC50 was under 2 µM.
